# System: MCF-7, A549 and HepG2 cells
# Test: Cellular uptake of drug-loaded micelles (confocal laser, flow cytometer)
# Format: cell-based, human
# Conditions: doxorubicin 16 μg/mL, 4 h
# Procedure: Cell culture: human breast cancer cells (MCF-7), human lung adenocarcinoma cells (A549) and human hepatoma cells (HepG2) were respectively added to a standard 6-well plate, and about 10^5 cells are in each well. After overnight culture, the culture medium was removed, and 1.8 mL of fresh medium was added to prepare three cell culture solutions.
# Drug treatment: 0.2 mL of each of the above two drugs (the final concentration of doxorubicin was 16 μg/mL) were added to the three cell culture solutions, respectively, and the cells were cultured for 4 h; subsequently, the culture medium was removed, and the cells were washed twice with PBS, fixed with 4% paraformaldehyde solution (about 5 min), and then washed twice with PBS; then, the nuclei of cells were stained with nuclear staining reagent (5 min), and the cells were washed twice with PBS.
smiles,measurement,value
COc1cccc2c1C(=O)c1c(O)c3c(c(O)c1C2=O)C[C@@](O)(C(=O)CO)C[C@@H]3O[C@H]1C[C@H](N)[C@H](O)[C@H](C)O1 [doxorubicin],cellular uptake,cellular uptake can effectively occur

# Source: US10947261B2, “Tetravalent platinum compound-bicyclic double-bond-containing amphiphilic polymer prodrug, nano-micelle, preparation method and application thereof” (ANHUI UNIVERSITY, priority 2017, dated 2021)
